Measured values reported in ChEMBL document CHEMBL1201862, “PubChem BioAssay data set” (2004).
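Each compound was tested at five concentrations against cells in 96-well plates for 48 hours. Abbreviation: GI50, concentration required for 50% inhibition of growth.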 Active and inactive are the calls of the source. Cut-off read from the data, not from the text of the source: active = GI50 up to about 1.1 µM and inactive = higher.

Experiments:
Assay in all cases: NCI anticancer screen, dose series, 48 h
SK-MEL-2 = tested on: SK-MEL-2
CAKI-1 = tested on: CAKI-1
M19-MEL = tested on: M19-MEL
RPMI-8226 = tested on: RPMI-8226
UACC-62 = tested on: UACC-62
LXFL 529 = tested on: LXFL 529
HCT-15 = tested on: HCT-15
HOP-18 = tested on: HOP-18
SR = tested on: SR
KM12 = tested on: KM12
IGROV-1 = tested on: IGROV-1
KM-20L2 = tested on: KM-20L2
RXF 393 = tested on: RXF 393
OVCAR-5 = tested on: OVCAR-5
M14 = tested on: M14
SK-MEL-28 = tested on: SK-MEL-28
CCRF-CEM = tested on: CCRF-CEM
COLO 205 = tested on: COLO 205
A549 = tested on: A549
HCT-116 = tested on: HCT-116
OVCAR-3 = tested on: OVCAR-3
SK-OV-3 = tested on: SK-OV-3
NCI-H460 = tested on: NCI-H460
786-0 = tested on: 786-0
SF-268 = tested on: SF-268
SNB-75 = tested on: SNB-75
UACC-257 = tested on: UACC-257
MOLT-4 = tested on: MOLT-4
SN12C = tested on: SN12C
NCI-H23 = tested on: NCI-H23
SK-MEL-5 = tested on: SK-MEL-5
SF-295 = tested on: SF-295
ACHN = tested on: ACHN
DMS-114 = tested on: DMS-114
Malme-3M = tested on: Malme-3M
NCI-H522 = tested on: NCI-H522
LOX IMVI = tested on: LOX IMVI
HT-29 = tested on: HT-29
OVCAR-8 = tested on: OVCAR-8
U-251 = tested on: U-251
DMS-273 = tested on: DMS-273
SNB-78 = tested on: SNB-78
OVCAR-4 = tested on: OVCAR-4
HOP-62 = tested on: HOP-62
SNB-19 = tested on: SNB-19
SF-539 = tested on: SF-539
SW-620 = tested on: SW-620
DLD-1 = tested on: DLD-1
HOP-92 = tested on: HOP-92
UO-31 = tested on: UO-31
HL-60 = tested on: HL-60
TK-10 = tested on: TK-10

With `CCN1C[C@]2(C)CC[C@H](O)C34C1C(C[C@@H]32)[C@@]1(O)CC[C@H]2C[C@@H]4[C@@H]1[C@H]2O` the GI50 (SK-MEL-2) was > 100 µM (inactive), the GI50 (CAKI-1) was > 100 µM (inactive) and the GI50 (M19-MEL) was > 100 µM (inactive). The GI50 (RPMI-8226) was > 100 µM (inactive), the GI50 (UACC-62) was > 100 µM (inactive) and the GI50 (LXFL 529) was > 100 µM (inactive). For the same compound, the GI50 (HCT-15) was greater than 100 µM, the GI50 (HOP-18) was > 100 µM (inactive) and the GI50 (SR) was > 100 µM (inactive). The GI50 (KM12) was > 100 µM (inactive), the GI50 (IGROV-1) was > 100 µM (inactive) and the GI50 (KM-20L2) was > 100 µM (inactive). The GI50 (RXF 393) was > 100 µM (inactive), the GI50 (OVCAR-5) was > 100 µM (inactive) and the GI50 (M14) was > 100 µM (inactive). For the same compound, the GI50 (SK-MEL-28) was > 100 µM (inactive), the GI50 (CCRF-CEM) was > 100 µM (inactive) and the GI50 (COLO 205) was > 100 µM (inactive). The GI50 (A549) was > 100 µM (inactive), the GI50 (HCT-116) was > 100 µM (inactive) and the GI50 (OVCAR-3) was > 100 µM (inactive). The GI50 (SK-OV-3) was > 100 µM (inactive), the GI50 (NCI-H460) was > 100 µM (inactive) and the GI50 (786-0) was > 100 µM (inactive). For the same compound, the GI50 (SF-268) was > 100 µM (inactive), the GI50 (SNB-75) was > 100 µM (inactive) and the GI50 (UACC-257) was > 100 µM (inactive). For the same compound, the GI50 (MOLT-4) was > 100 µM (inactive), the GI50 (SN12C) was > 100 µM (inactive) and the GI50 (NCI-H23) was > 100 µM (inactive). The GI50 (SK-MEL-5) was > 100 µM (inactive), the GI50 (SF-295) was > 100 µM (inactive) and the GI50 (ACHN) was > 100 µM (inactive). For the same compound, the GI50 (DMS-114) was > 100 µM (inactive), the GI50 (Malme-3M) was > 100 µM (inactive) and the GI50 (NCI-H522) was > 100 µM (inactive). For the same compound, the GI50 (LOX IMVI) was > 100 µM (inactive), the GI50 (HT-29) was > 100 µM (inactive) and the GI50 (OVCAR-8) was > 100 µM (inactive). For the same compound, the GI50 (U-251) was > 100 µM (inactive), the GI50 (DMS-273) was > 100 µM (inactive) and the GI50 (SNB-78) was 88.7 µM (inactive). The GI50 (OVCAR-4) was > 100 µM (inactive), the GI50 (HOP-62) was > 100 µM (inactive) and the GI50 (SNB-19) was > 100 µM (inactive). For the same compound, the GI50 (SF-539) was > 100 µM (inactive), the GI50 (SW-620) was > 100 µM (inactive) and the GI50 (DLD-1) was > 100 µM (inactive). For the same compound, the GI50 (HOP-92) was > 100 µM (inactive), the GI50 (UO-31) was > 100 µM (inactive) and the GI50 (HL-60) was > 100 µM (inactive). The GI50 (TK-10) was > 100 µM (inactive).
